According to BigSolDB 2.1:

O=C(O)C=CC(=O)O.OCCOCCN1CCN(C2=Nc3ccccc3Sc3ccccc32)CC1.OCCOCCN1CCN(C2=Nc3ccccc3Sc3ccccc32)CC1
solubility (mole fraction)
Details | in DMF | in acetone | in ethanol | in ethyl acetate | in isobutanol | in isopropanol | in methanol | in n-butanol | in water
283.15 K | 0.00309 | 0.000106 | 0.000191 | 8.13e-05 | 6.85e-05 | 0.000107 | 0.000388 | 0.000154 | 4.98e-05
288.15 K | 0.00369 | 0.000146 | 0.000244 | 9.87e-05 | 8.53e-05 | 0.000126 | 0.000453 | 0.000216 | 5.57e-05
293.15 K | 0.00419 | 0.000178 | 0.000325 | 0.000142 | 0.000119 | 0.000168 | 0.000545 | 0.000292 | 6.73e-05
298.15 K | 0.00491 | 0.000217 | 0.000408 | 0.000176 | 0.000162 | 0.000203 | 0.000696 | 0.000393 | 7.39e-05
303.15 K | 0.00598 | 0.000251 | 0.000502 | 0.000218 | 0.000204 | 0.000251 | 0.000879 | 0.000502 | 7.99e-05
308.15 K | 0.00684 | 0.000294 | 0.000636 | 0.000255 | 0.000251 | 0.000289 | 0.00121 | 0.000619 | 9.31e-05
313.15 K | 0.0084 | 0.000345 | 0.000838 | 0.000306 | 0.000307 | 0.00036 | 0.00163 | 0.000792 | 0.000108
318.15 K | 0.0102 | 0.000395 | 0.0011 | 0.000365 | 0.000395 | 0.000494 | 0.00202 | 0.000988 | 0.000131
323.15 K | 0.0123 | 0.000475 | 0.00135 | 0.000411 | 0.000481 | 0.000716 | 0.00245 | 0.00118 | 0.000162
